The target in one test is Aurora kinase B (Homo sapiens, UniProt Q96GD4).
The next test addresses T1, Ephrin type-B receptor 4 (Homo sapiens, UniProt P54760).
T1 sequence (P54760 whole entry): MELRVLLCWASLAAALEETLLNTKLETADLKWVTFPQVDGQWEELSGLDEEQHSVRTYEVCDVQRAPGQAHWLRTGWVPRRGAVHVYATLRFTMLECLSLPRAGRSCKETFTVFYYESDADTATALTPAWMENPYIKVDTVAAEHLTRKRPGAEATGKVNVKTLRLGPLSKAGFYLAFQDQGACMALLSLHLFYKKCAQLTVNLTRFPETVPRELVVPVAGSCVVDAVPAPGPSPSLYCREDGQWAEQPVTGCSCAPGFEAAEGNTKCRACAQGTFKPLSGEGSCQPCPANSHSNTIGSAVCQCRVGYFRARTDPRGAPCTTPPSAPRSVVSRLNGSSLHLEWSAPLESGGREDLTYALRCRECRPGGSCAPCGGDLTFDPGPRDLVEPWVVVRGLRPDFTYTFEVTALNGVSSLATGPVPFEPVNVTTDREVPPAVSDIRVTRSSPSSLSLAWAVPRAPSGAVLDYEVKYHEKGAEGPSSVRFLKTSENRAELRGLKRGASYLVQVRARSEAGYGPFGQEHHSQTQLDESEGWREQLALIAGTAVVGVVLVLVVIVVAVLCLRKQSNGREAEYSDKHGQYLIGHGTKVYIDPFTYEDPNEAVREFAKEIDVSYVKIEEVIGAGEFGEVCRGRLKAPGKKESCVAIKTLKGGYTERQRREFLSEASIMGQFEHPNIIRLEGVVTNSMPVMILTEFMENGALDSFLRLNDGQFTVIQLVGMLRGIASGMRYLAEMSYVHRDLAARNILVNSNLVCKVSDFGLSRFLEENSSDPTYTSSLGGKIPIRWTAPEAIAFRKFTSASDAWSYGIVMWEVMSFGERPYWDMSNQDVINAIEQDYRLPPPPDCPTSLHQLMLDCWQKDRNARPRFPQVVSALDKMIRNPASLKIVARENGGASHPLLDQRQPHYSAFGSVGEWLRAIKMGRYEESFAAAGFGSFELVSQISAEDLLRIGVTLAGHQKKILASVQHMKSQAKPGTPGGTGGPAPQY

In test [1] the target is Proto-oncogene tyrosine-protein kinase ROS (Homo sapiens, UniProt P08922).
Test [2] concerns the target Calcium/calmodulin-dependent protein kinase type II subunit beta (Homo sapiens, UniProt Q13554).
Test [3] deals with T2, Phosphatidylinositol 5-phosphate 4-kinase type-2 beta (Homo sapiens, UniProt P78356).
T2 sequence (P78356 whole entry): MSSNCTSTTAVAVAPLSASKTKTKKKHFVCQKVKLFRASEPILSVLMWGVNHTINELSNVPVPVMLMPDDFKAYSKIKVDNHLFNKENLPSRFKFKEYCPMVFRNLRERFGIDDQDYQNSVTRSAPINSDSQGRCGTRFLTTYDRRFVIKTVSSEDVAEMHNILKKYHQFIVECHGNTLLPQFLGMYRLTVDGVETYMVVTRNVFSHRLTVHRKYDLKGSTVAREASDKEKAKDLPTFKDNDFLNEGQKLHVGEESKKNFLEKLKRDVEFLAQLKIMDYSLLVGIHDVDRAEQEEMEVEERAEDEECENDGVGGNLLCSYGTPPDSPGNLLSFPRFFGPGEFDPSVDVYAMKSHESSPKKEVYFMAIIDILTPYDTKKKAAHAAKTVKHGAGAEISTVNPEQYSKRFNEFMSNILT

The next test concerns the target Ephrin type-A receptor 2 (Homo sapiens, UniProt P29317).
Test [4] has as its target Receptor-type tyrosine-protein kinase FLT3 (Homo sapiens, UniProt P36888, N841I).
Test [5] concerns the target T3, Serine/threonine-protein kinase D2 (Homo sapiens, UniProt Q9BZL6).
T3 sequence (Q9BZL6 whole entry): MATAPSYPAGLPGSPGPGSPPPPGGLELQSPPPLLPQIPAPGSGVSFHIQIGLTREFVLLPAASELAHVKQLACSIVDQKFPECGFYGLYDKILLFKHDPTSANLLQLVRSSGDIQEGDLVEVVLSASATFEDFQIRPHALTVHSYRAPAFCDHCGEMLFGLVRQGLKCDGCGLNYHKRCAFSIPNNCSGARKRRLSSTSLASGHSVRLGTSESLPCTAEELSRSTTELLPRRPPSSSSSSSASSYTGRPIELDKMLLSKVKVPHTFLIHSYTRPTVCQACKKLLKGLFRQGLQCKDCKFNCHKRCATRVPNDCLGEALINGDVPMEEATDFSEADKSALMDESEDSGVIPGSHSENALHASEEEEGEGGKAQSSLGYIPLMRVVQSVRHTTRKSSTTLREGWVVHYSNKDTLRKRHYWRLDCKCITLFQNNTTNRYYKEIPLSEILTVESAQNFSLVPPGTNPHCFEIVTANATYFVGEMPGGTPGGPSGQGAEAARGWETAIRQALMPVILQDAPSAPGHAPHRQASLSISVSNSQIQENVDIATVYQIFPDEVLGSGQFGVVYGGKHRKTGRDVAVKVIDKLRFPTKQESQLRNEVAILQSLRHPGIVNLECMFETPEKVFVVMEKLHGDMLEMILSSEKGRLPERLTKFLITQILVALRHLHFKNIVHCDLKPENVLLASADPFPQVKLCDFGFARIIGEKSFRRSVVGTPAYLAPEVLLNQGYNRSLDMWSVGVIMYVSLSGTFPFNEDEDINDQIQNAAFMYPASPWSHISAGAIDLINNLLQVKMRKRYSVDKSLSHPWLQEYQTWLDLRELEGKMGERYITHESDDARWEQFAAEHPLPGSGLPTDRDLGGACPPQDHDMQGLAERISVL

Test [6] deals with Death-associated protein kinase 3 (Homo sapiens, UniProt O43293).

This note sets out measurements from ChEMBL document CHEMBL1150977, “A quantitative analysis of kinase inhibitor selectivity” (Nat Biotechnol, 2008).

Broadly, the Kd is a measure of binding affinity in units of concentration.

Chain of Proto-oncogene tyrosine-protein kinase ROS (P08922 whole entry): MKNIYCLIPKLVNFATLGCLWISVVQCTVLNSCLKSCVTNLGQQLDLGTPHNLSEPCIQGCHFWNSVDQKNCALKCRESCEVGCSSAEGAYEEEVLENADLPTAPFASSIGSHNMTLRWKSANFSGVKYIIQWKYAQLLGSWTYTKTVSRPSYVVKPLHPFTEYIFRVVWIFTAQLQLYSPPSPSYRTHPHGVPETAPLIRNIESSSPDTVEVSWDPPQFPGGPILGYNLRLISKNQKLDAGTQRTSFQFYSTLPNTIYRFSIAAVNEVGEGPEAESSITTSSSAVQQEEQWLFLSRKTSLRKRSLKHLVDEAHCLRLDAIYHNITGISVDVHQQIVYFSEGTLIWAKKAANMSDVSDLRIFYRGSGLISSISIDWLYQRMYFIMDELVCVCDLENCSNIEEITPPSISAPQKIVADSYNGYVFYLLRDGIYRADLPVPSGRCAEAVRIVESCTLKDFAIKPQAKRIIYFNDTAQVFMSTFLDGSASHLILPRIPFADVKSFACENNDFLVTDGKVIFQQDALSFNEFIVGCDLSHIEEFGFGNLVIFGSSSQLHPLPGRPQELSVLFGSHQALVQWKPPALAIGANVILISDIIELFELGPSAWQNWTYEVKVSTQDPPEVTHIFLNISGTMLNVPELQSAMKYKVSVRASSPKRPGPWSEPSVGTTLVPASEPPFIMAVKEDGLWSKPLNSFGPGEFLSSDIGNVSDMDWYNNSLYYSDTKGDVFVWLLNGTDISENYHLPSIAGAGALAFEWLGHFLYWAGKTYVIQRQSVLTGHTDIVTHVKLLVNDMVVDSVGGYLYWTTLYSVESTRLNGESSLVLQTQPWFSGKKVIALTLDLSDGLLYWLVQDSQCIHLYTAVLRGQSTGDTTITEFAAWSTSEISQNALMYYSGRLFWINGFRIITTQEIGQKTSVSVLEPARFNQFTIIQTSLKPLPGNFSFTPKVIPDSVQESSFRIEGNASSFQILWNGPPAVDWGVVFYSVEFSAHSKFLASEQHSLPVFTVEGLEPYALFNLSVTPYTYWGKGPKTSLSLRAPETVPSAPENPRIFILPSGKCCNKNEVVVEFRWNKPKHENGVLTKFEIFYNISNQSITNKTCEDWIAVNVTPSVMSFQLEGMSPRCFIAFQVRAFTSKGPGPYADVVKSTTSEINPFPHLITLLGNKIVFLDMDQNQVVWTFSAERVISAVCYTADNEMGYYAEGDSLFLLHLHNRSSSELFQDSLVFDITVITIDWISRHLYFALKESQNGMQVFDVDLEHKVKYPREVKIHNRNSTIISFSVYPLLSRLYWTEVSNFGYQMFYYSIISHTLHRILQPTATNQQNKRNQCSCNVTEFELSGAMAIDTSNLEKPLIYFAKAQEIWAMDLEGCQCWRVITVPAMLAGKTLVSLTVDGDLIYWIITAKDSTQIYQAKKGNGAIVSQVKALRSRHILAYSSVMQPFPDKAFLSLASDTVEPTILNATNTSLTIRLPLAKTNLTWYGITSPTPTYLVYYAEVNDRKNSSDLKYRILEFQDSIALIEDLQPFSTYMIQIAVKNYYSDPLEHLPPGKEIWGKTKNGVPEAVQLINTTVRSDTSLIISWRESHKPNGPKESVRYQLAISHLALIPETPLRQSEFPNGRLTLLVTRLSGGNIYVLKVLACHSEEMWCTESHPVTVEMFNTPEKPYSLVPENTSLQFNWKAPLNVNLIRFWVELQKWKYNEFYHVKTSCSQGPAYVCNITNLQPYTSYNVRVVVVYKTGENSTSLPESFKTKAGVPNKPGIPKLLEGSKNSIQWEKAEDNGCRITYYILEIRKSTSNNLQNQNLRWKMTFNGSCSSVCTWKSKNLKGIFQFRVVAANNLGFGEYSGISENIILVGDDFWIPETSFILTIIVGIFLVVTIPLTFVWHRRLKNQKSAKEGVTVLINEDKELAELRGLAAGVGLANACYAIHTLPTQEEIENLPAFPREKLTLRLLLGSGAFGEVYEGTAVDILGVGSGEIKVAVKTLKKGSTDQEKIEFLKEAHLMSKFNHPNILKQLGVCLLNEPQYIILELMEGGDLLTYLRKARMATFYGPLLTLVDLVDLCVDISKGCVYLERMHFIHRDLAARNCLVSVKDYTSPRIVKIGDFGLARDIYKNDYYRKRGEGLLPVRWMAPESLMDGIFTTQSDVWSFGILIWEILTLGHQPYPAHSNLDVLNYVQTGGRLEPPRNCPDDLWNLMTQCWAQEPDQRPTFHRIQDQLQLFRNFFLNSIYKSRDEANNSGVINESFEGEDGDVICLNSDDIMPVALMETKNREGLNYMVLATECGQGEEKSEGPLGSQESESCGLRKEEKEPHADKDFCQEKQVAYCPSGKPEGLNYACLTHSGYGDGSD
Chain of Ephrin type-A receptor 2 (P29317 whole entry): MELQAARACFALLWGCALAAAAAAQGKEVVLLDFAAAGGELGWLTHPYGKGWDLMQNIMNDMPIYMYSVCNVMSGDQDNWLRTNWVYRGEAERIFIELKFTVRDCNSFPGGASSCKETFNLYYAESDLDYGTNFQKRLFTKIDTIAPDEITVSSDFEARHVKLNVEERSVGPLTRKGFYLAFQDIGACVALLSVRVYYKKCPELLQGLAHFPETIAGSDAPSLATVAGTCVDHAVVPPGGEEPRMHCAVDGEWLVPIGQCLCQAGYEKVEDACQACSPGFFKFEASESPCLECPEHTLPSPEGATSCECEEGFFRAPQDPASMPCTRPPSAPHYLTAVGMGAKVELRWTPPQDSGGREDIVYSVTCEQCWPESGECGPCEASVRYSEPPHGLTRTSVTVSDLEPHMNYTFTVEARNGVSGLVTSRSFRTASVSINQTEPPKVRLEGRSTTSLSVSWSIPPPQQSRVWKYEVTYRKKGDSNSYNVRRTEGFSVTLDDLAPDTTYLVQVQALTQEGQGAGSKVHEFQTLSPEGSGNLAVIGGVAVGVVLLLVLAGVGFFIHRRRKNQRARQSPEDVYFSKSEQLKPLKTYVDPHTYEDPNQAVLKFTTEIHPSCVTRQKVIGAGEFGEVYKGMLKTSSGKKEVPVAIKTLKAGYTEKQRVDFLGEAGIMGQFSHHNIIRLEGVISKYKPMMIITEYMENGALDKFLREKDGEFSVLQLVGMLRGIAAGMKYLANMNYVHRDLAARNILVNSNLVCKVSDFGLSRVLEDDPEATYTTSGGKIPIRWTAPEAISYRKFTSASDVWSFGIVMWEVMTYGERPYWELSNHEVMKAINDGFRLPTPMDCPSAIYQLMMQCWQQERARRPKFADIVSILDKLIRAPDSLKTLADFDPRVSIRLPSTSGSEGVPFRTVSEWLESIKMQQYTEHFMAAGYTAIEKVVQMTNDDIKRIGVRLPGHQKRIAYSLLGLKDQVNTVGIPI
Chain of Calcium/calmodulin-dependent protein kinase type II subunit beta (Q13554 whole entry): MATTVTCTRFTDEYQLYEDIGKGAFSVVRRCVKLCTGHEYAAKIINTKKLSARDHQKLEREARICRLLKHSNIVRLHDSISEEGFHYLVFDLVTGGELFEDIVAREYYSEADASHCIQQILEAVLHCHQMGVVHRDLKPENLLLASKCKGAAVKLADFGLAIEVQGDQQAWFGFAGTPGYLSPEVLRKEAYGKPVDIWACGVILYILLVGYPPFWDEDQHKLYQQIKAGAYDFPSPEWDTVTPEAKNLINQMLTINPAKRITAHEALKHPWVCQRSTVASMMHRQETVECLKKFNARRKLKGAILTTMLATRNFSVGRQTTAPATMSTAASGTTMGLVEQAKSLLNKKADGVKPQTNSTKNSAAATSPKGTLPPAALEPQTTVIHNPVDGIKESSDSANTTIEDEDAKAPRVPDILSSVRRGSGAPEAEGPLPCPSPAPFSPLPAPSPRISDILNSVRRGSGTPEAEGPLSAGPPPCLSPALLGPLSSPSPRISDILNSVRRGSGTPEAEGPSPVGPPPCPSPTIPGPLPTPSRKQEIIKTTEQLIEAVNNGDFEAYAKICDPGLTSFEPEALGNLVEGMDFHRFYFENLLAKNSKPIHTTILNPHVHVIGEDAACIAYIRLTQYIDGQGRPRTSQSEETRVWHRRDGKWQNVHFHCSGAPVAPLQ
Chain of Death-associated protein kinase 3 (O43293 whole entry): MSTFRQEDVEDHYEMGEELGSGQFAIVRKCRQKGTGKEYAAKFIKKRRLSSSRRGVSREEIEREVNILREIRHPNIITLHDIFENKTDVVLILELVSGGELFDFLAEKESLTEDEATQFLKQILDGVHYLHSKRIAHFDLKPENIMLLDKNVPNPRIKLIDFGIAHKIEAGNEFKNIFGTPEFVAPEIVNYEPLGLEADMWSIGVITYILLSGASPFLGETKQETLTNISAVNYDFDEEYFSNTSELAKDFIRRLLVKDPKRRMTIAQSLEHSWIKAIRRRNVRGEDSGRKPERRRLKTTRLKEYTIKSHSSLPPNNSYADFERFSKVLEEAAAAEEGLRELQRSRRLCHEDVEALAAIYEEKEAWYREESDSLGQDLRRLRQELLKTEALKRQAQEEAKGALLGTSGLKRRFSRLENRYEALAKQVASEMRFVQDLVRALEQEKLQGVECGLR
Chain of Aurora kinase B (Q96GD4 whole entry): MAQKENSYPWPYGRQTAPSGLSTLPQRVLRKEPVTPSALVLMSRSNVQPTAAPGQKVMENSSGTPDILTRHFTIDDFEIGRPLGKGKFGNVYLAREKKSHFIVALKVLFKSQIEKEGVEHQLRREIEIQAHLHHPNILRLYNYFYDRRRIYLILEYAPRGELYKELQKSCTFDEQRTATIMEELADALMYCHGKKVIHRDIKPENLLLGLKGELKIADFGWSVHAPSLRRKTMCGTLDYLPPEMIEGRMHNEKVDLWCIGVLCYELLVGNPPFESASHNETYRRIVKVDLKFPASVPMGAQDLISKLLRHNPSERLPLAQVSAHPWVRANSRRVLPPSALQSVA

`CCN1CCN(Cc2ccc(NC(=O)Nc3ccc(Oc4cc(NC)ncn4)cc3)cc2C(F)(F)F)CC1` [AST-487] displayed a Kd on Aurora kinase B of more than 10 µM.

In the case of `COCC(=O)NC/C=C/c1ccc2ncnc(Nc3ccc(Oc4ccc(C)nc4)c(C)c3)c2c1` [CP-724714], the Kd (on Ephrin type-B receptor 4; in test [1]; in test [2]; at Aurora kinase B; in test [3]; at Ephrin type-A receptor 2) was more than 10 µM in each case. The Kd in test [4], in test [5] and in test [6] was more than 10 µM in each case.

As for `Nc1nc(Nc2ccc(S(N)(=O)=O)cc2)nn1C(=O)c1c(F)cccc1F` [JNJ-7706621], the Kd (on Ephrin type-B receptor 4; in test [1]; in test [2]; at Ephrin type-A receptor 2; in [5]; in [6]) was more than 10 µM throughout.

As to `CCOc1cc2ncc(C#N)c(Nc3ccc(F)c(Cl)c3)c2cc1NC(=O)/C=C/CN(C)C` [PELITINIB], the Kd at Ephrin type-B receptor 4 is 2.8 µM; in test [1], more than 10 µM; in test [2] it was more than 10 µM; on Aurora kinase B it was more than 10 µM; at Ephrin type-A receptor 2 it was more than 10 µM; in test [4], 2 µM. In test [5], the Kd is more than 10 µM.

As to `Oc1ccc(-c2nc(-c3ccncc3)c(-c3ccc(F)cc3)[nH]2)cc1` [SB-202190], the Kd (on Ephrin type-B receptor 4; in test [1]; in test [2]; at Aurora kinase B; in [3]; on Ephrin type-A receptor 2) was more than 10 µM throughout. The Kd in [4], in test [5] and in test [6] was more than 10 µM each time.

On to `NC(=O)c1ccc(-c2nc(-c3ccc4c(c3)OCO4)c(-c3ccccn3)[nH]2)cc1` [SB-431542], for which the Kd (on Ephrin type-B receptor 4; in test [1]; in test [2]; at Aurora kinase B; in test [3]; on Ephrin type-A receptor 2) was more than 10 µM throughout. Also, the Kd in test [5] and in [6] was more than 10 µM in each case.
